Literature values, collected in PMC6311893, “Computational prediction of plasma protein binding of cyclic peptides from small molecule experimental data using sparse modeling techniques” (BMC Bioinformatics, 2018).

System: plasma protein
Conditions: cited from earlier work
In the case of `COc1cc(C)c(/C=C/C(C)=C/C=C/C(C)=C/C(=O)O)c(C)c1C` [acitretin], the “PPB (fb)” value is given as 0.99.

Same assay, conditions: fraction bound to plasma protein; small molecule dataset, sheet 1-SM (Set Dte = test, Dtr = training); ref Ingle et al.; cited from earlier work
For `Cc1cn([C@H]2C[C@H](N=[N+]=[N-])[C@@H](CO)O2)c(=O)[nH]c1=O` [Zidovudine], the “PPB (fb)” value is listed as 0.28. For `C[C@H]1O[C@H](O[C@H]2[C@H](O)[C@@H](O)[C@@H](O[C@H]3[C@H](O)[C@@H](O)C(O)O[C@@H]3CO)O[C@@H]2CO)[C@H](O)[C@@H](O)[C@@H]1N[C@H]1C=C(CO)[C@@H](O)[C@H](O)[C@H]1O` (stereo partly shown) [acarbose], the “PPB (fb)” value is listed as 0.15. For `O=C(O)COC(=O)Cc1ccccc1Nc1c(Cl)cccc1Cl` [aceclofenac], the “PPB (fb)” value is listed as 0.99. For `COc1ccc2c(c1)c(CC(=O)OCC(=O)O)c(C)n2C(=O)c1ccc(Cl)cc1` [acemetacin], the “PPB (fb)” value is given as 0.9. For `CC(=O)Nc1ccccc1` [acetanilide], the “PPB (fb)” value is given as 0.07. In the case of `CC(=O)c1ccc(S(=O)(=O)NC(=O)NC2CCCCC2)cc1` [acetohexamide], the “PPB (fb)” value is given as 0.96. For `Cc1cnc(C(=O)O)c[n+]1[O-]` [acipimox], the “PPB (fb)” value is given as 0.02. For `CCCSc1ccc2nc(NC(=O)OC)[nH]c2c1` [albendazole], the “PPB (fb)” value is given as 0.7. In the case of `C=CCOc1ccc(CC(=O)O)cc1Cl` [alclofenac], the “PPB (fb)” value is given as 0.99. In the case of `CC12CC(=O)C3C(CCC4CC(O)CCC43C)C1CCC2C(=O)CO` (stereo not shown) [alfadolone], the “PPB (fb)” value is given as 0.3. For `COc1cc2nc(N(C)CCCNC(=O)C3CCCO3)nc(N)c2cc1OC` (stereo not shown) [alfuzosin], the “PPB (fb)” value is listed as 0.9. In the case of `C=CCNc1nc(NCC=C)nc(N2CCN(C(c3ccc(F)cc3)c3ccc(F)cc3)CC2)n1` [almitrine], the “PPB (fb)” value is listed as 0.99. For `CCCCC[C@H](O)/C=C/[C@H]1[C@H](O)CC(=O)[C@@H]1CCCCCCC(=O)O` [alprostadil], the “PPB (fb)” value is given as 0.92. For `CN(C)c1nc(N(C)C)nc(N(C)C)n1` [altretamine], the “PPB (fb)” value is listed as 0.94. For `Nc1c(Br)cc(Br)cc1CN[C@H]1CC[C@H](O)CC1` [ambroxol], the “PPB (fb)” value is given as 0.9. For `CC1(C)S[C@@H]2[C@H](/N=C/N3CCCCCC3)C(=O)N2[C@H]1C(=O)O` [amdinocillin], the “PPB (fb)” value is listed as 0.14. For `Cc1c(N(C)C)c(=O)n(-c2ccccc2)n1C` [amidopyrine], the “PPB (fb)” value is given as 0.3. In the case of `NCCCNCCSP(=O)(O)O` [amifostine], the “PPB (fb)” value is listed as 0.04. For `N=C(N)NC(=O)c1nc(Cl)c(N)nc1N` [amiloride], the “PPB (fb)” value is given as 0.4. In the case of `CCC1(c2ccc(N)cc2)CCC(=O)NC1=O` (stereo not shown) [aminoglutethimide], the “PPB (fb)” value is listed as 0.24. For `CCN1CCCC1CNC(=O)c1cc(S(=O)(=O)CC)c(N)cc1OC` (stereo not shown) [amisulpride], the “PPB (fb)” value is given as 0.16. For `CC(=O)Nc1ccc(/C=N/NC(N)=S)cc1` [amithiozone], the “PPB (fb)” value is listed as 0.95. In the case of `CCN(CC)Cc1cc(Nc2ccnc3cc(Cl)ccc23)ccc1O` [amodiaquine], the “PPB (fb)” value is listed as 0.9. For `COc1ccccc1OCCNCC(O)c1ccc(C)c(S(N)(=O)=O)c1` (stereo not shown) [amosulalol], the “PPB (fb)” value is listed as 0.98. In the case of `Clc1ccc2c(c1)C(N1CCNCC1)=Nc1ccccc1O2` [amoxapine], the “PPB (fb)” value is given as 0.9. For `C[C@@H]1[C@H](O)[C@@H](C)/C=C/C=C/C=C/C=C/C=C/C=C/C=C/[C@H](O[C@@H]2O[C@H](C)[C@@H](O)[C@H](N)[C@@H]2O)C[C@@H]2O[C@](O)(C[C@@H](O)C[C@@H](O)[C@H](O)CC[C@@H](O)C[C@@H](O)CC(=O)O[C@H]1C)C[C@H](O)[C@H]2C(=O)O` [amphotericin-B], the “PPB (fb)” value is listed as 0.94. For `CC(C)CN(C[C@@H](O)[C@H](Cc1ccccc1)NC(=O)O[C@H]1CCOC1)S(=O)(=O)c1ccc(N)cc1` [amprenavir], the “PPB (fb)” value is given as 0.9. For `CC(C)(C#N)c1cc(Cn2cncn2)cc(C(C)(C)C#N)c1` [anastrozole], the “PPB (fb)” value is given as 0.44. In the case of `COc1ccc(C(=O)N2CCCC2=O)cc1` [aniracetam], the “PPB (fb)” value is listed as 0.66. In the case of `CCN(CC)CCCN(c1ccccc1)C1Cc2ccccc2C1` [aprindine], the “PPB (fb)” value is given as 0.95. In the case of `NCC[C@H](O)C(=O)N[C@@H]1C[C@H](N)[C@@H](O[C@H]2O[C@H](CN)CC[C@H]2N)[C@H](O)[C@H]1O[C@H]1O[C@H](CO)[C@@H](O)[C@H](N)[C@H]1O` [arbekacin], the “PPB (fb)” value is given as 0.08. In the case of `CCOC(=O)c1c(CSc2ccccc2)n(C)c2cc(Br)c(O)c(CN(C)C)c12` [arbidol], the “PPB (fb)” value is listed as 0.91. In the case of `CO[C@H]1O[C@@H]2O[C@@]3(C)CC[C@H]4[C@H](C)CC[C@@H]([C@H]1C)[C@@]24OO3` [artemether], the “PPB (fb)” value is listed as 0.5. In the case of `COc1ccc(CCN2CCC(Nc3nc4ccccc4n3Cc3ccc(F)cc3)CC2)cc1` [astemizole], the “PPB (fb)” value is listed as 0.97. For `CN1CCC(=C2c3ccccc3CCc3cccnc32)CC1` [azatadine], the “PPB (fb)” value is given as 0.1. For `Cn1cnc([N+](=O)[O-])c1Sc1ncnc2nc[nH]c12` [azathioprine], the “PPB (fb)” value is given as 0.25. In the case of `CC1(C)SC2C(NC(=O)C(N=[N+]=[N-])c3ccccc3)C(=O)N2C1C(=O)O` (stereo not shown) [azidocillin], the “PPB (fb)” value is listed as 0.8. In the case of `NS(=O)(=O)c1cc(-c2nnn[nH]2)c(NCc2cccs2)cc1Cl` [azosemide], the “PPB (fb)” value is listed as 0.96. For `CCOC(=O)OC(C)OC(=O)[C@@H]1N2C(=O)[C@@H](NC(=O)[C@H](N)c3ccccc3)[C@H]2SC1(C)C` (stereo partly shown) [bacampicillin], the “PPB (fb)” value is listed as 0.2. In the case of `NCC(CC(=O)O)c1ccc(Cl)cc1` (stereo not shown) [baclofen], the “PPB (fb)” value is given as 0.3. For `O=C(O)[C@H]1O[C@@H](Oc2cc3oc(-c4ccccc4)cc(=O)c3c(O)c2O)[C@H](O)[C@@H](O)[C@@H]1O` [baicalin], the “PPB (fb)” value is given as 0.66. In the case of `O=C(O)CCNC(=O)c1ccc(/N=N/c2ccc(O)c(C(=O)O)c2)cc1` [balsalazide], the “PPB (fb)” value is given as 0.99. For `CN(C)C(=O)Oc1cc(OC(=O)N(C)C)cc(C(O)CNC(C)(C)C)c1` (stereo not shown) [bambuterol], the “PPB (fb)” value is listed as 0.45. For `CCOC(=O)[C@H](CCc1ccccc1)N[C@H]1CCc2ccccc2N(CC(=O)O)C1=O` [benazepril], the “PPB (fb)” value is listed as 0.96. For `NS(=O)(=O)c1cc2c(cc1C(F)(F)F)NC(Cc1ccccc1)NS2(=O)=O` (stereo not shown) [bendrofluazide], the “PPB (fb)” value is listed as 0.94. In the case of `CC(C(=O)O)c1ccc2oc(-c3ccc(Cl)cc3)nc2c1` (stereo not shown) [benoxaprofen], the “PPB (fb)” value is listed as 0.99.

Same assay, conditions: fraction bound to plasma protein; small molecule dataset, sheet 1-SM; ref Ingle et al.; cited from earlier work
In the case of `C/C=C/C[C@@H](C)C(=O)[C@H]1C(=O)N[C@@H](C(C)C)C(=O)N(C)CC(=O)N(C)[C@@H](CC(C)C)C(=O)N[C@@H](C(C)C)C(=O)N(C)[C@@H](CC(C)C)C(=O)N[C@@H](C)C(=O)N[C@H](C)C(=O)N(C)[C@@H](CC(C)C)C(=O)N(C)[C@@H](CC(C)C)C(=O)N(C)[C@@H](C(C)C)C(=O)N1C` [Valspodar], the “PPB (fb)” value is listed as 0.98. In the case of `CCCc1nc(C)c2c(=O)[nH]c(-c3cc(S(=O)(=O)N4CCN(CC)CC4)ccc3OCC)nn12` [Vardenafil], the “PPB (fb)” value is listed as 0.95. For `CC[C@]1(O)C[C@H]2CN(CCc3c([nH]c4ccccc34)[C@@](C(=O)OC)(c3cc4c(cc3OC)N(C=O)[C@H]3[C@@](O)(C(=O)OC)[C@H](OC(C)=O)[C@]5(CC)C=CCN6CC[C@]43[C@@H]65)C2)C1` [Vincristine], the “PPB (fb)” value is listed as 0.6. In the case of `C[C@@H](c1ncncc1F)[C@](O)(Cn1cncn1)c1ccc(F)cc1F` [Voriconazole], the “PPB (fb)” value is given as 0.58. In the case of `O=C(NCCNCC(O)COc1ccc(O)cc1)N1CCOCC1` (stereo not shown) [Xamoterol], the “PPB (fb)” value is given as 0.03. In the case of `CC(=O)N[C@H]1[C@H]([C@H](O)[C@H](O)CO)OC(C(=O)O)=C[C@@H]1N=C(N)N` [Zanamivir], the “PPB (fb)” value is listed as 0.09. For `O=C1Cc2cc(CCN3CCN(c4nsc5ccccc45)CC3)c(Cl)cc2N1` [Ziprasidone], the “PPB (fb)” value is given as 0.99. In the case of `O=P(O)(O)C(O)(Cn1ccnc1)P(=O)(O)O` [Zoledronic Acid], the “PPB (fb)” value is given as 0.22. In the case of `CN(C)CCc1c[nH]c2ccc(C[C@H]3COC(=O)N3)cc12` [Zolmitriptan], the “PPB (fb)” value is given as 0.25.

Same assay, conditions: plasma; cited from earlier work
For `COc1ccc(C(CN(C)C)C2(O)CCCCC2)cc1` (stereo not shown) [Venlafaxine], the “PPB (fb)” value is given as 0.27. In the case of `CCN(C(C)=O)c1cccc(-c2ccnc3c(C#N)cnn23)c1` [Zaleplon], the “PPB (fb)” value is given as 0.6. In the case of `CC(=O)NCCCS(=O)(=O)O` [acamprosate], the “PPB (fb)” value is given as 0.03. For `CC(=O)OC1CC(OC2C(O)CC(OC3C(O)CC(OC4CCC5(C)C(CCC6C5CCC5(C)C(C7=CC(=O)OC7)CCC65O)C4)OC3C)OC2C)OC(C)C1O` (stereo not shown) [acetyldigitoxin], the “PPB (fb)” value is listed as 0.8. For `CC[C@@]1(O)C[C@H](O[C@H]2C[C@H](N(C)C)[C@H](O[C@H]3C[C@H](O)[C@H](O[C@H]4CCC(=O)[C@H](C)O4)[C@H](C)O3)[C@H](C)O2)c2c(cc3c(c2O)C(=O)c2c(O)cccc2C3=O)[C@H]1C(=O)OC` [aclarubicin], the “PPB (fb)” value is listed as 0.43. In the case of `O=C(C[S+]([O-])C(c1ccccc1)c1ccccc1)NO` (stereo not shown) [adrafinil], the “PPB (fb)” value is given as 0.8. For `CCC[S+]([O-])c1ccc2[nH]c(NC(=O)OC)nc2c1` (stereo not shown) [albendazole sulfoxide], the “PPB (fb)” value is given as 0.7. For `C=CC[N@@+]12CC[C@@]34c5ccccc5N5/C=C6/[C@H]7C[C@H]8[C@@]9(CC[N@@+]8(CC=C)C/C7=C/CO)c7ccccc7N(/C=C(/[C@@H](C[C@@H]31)/C(=C\CO)C2)[C@H]54)[C@@H]69` [alcuronium], the “PPB (fb)” value is given as 0.4. In the case of `CC(=O)O[C@H]1C[C@H](O[C@H]2[C@@H](O)C[C@H](O[C@H]3[C@@H](O)C[C@H](O[C@H]4CC[C@@]5(C)[C@H](CC[C@@H]6[C@@H]5C[C@@H](O)[C@]5(C)[C@@H](C7=CC(=O)OC7)CC[C@]65O)C4)O[C@@H]3C)O[C@@H]2C)O[C@H](C)[C@H]1O` [alpha-acetyldigoxin], the “PPB (fb)” value is given as 0.25. For `C=CCC1(C(C)C)C(=O)NC(=O)NC1=O` [aprobarbital], the “PPB (fb)” value is listed as 0.62. For `CCC1(CC)C(=O)NC(=O)NC1=O` [barbital], the “PPB (fb)” value is given as 0.1.
